Three compounds from the NIST ThermoML archive (doi:10.1016/j.fluid.2010.05.013) can be followed below.

For this data set the following is noted: visual observation.

± gives the expanded uncertainty stated by the source.

`CC(O)C(=O)O` (stereo not drawn) [2-hydroxypropanoic acid]: the Normal melting temperature (Crystal) worked out at 17 ± 0.17 °C. On to `CCn1cc[n+](C)c1.O=S(=O)([N-]S(=O)(=O)C(F)(F)F)C(F)(F)F`, for which the Normal melting temperature (Metastable crystal) was -17.00 ± 2 °C. For `CCC(=O)O` [propanoic acid], the Normal melting temperature (Crystal) is -20.83 ± 0.17 °C.
